Experiments:
[1] = tested on: patients hospitalized for acute HFrEF; test: PIONEER-HF study: clinical outcomes; assay type: in vivo, human; details: 8 weeks; LCZ696 n = 440, enalapril n = 441
Procedure: The study rational and design is described in by Velazquez E J, et al. .in Am.
(§1) The starting dose and all subsequent doses were selected to optimize the highest tolerated dose based on a systolic blood pressure (SBP) algorithm.
(§2) Inclusion Criteria: • Patients ≥18 y of age with the capacity to provide written informed consent. • Currently hospitalized for a primary diagnosis of HF, including symptoms and signs of fluid overload. • Eligible patients will be randomized no earlier than 24 hours and up to ten days after presentation while still hospitalized as long as meet the following definition of stable status: • SBP≥100 mm Hg for the preceding 6 hours prior to randomization; no symptomatic hypotension • No increase (intensification) in i.v. diuretic dose within last 6 hours prior to randomization • No i.v. inotropic drugs for 24 hours prior to randomization • No i.v. vasodilators including nitrates within last 6 hours prior to randomization • Left ventricular EF 40% within the past 6 m (including current hospitalization) using echocardiography, multi gated acquisition scan (MUGA), CT scanning, MRI or ventricular angiography, provided no subsequent study documented an EF of >40% • Elevated NT-proBNP≥1600 pg/mL OR BNP≥400 pg/mL during current hospitalization.

[2] = tested on: patients hospitalized for acute HFrEF
Procedure: as §1, §2

Question: Which results are given for `CCOC(=O)[C@H](CCc1ccccc1)N[C@@H](C)C(=O)N1CCC[C@H]1C(=O)O` [enalapril, reference compound]?
Answer: Additional HF drug [1]: 83 (18.8) number (%); Composite (death, rehospitalization for HF, LVAD implantation, or listing for cardiac transplant) [1]: 74 (16.8) number (%); Death [1]: 15 (3.4) number (%); Expanded composite (composite plus unplanned outpatient visits requiring IV diuretics, or increase >50% in diuretic dose) [1]: 275 (62.4) number (%); HF rehospitalization [1]: 61 (13.8) number (%); Increase in diuretic dose >50% [1]: 239 (54.2) number (%); LVAD implantation [1]: 1 (0.2) number (%); Listing for cardiac transplant [1]: 0 (0.0) number (%); Unplanned outpatient visits requiring intravenous diuretics [1]: 2 (0.5) number (%); Hyperkalemia ([2]; 8 weeks): 9.3%; Symptomatic hypotension ([2]; 8 weeks): 9.1%; Worsening renal function ([2]; 8 weeks): 14.7%; Angioedema in patients who identified as black (in words) ([2]; black patients): angioedema were observed; Angioedema events (number in words) ([2]; blinded adjudication): six; Angioedema ([2]; blinded adjudication, 8 weeks): 1.4%; Patients in whom the maximum target dose had been achieved ([2]; by the week 8 study visit): 62%; Study drug prematurely discontinued prior to 8 weeks ([2]; excluding discontinuation due to death): 20.3%
